{"source": "ChEMBL document CHEMBL5370626", "about": "“Targeting the Subpocket Enables the Discovery of Thiadiazole-Pyridazine Derivatives as Glutaminase C Inhibitors” (ACS Med Chem Lett, 2023)", "key": {"[1]": {"assay": "MRT(0 to t) in Sprague-Dawley rat plasma at 100 mg/kg, po measured up to 48 hrs by LC-MS/MS analysis", "assay_type": "ADME, organism-based"}, "[2]": {"assay": "Toxicity in Balb/c nude mouse xenografted with human A549 cells assessed as change in body weight at 100 to 150 mg/kg, po administered once daily 24 days", "assay_type": "organism-based", "details": "in vivo, 576 h, dose 100-150 mg/kg, time 24 day"}, "[3]": {"assay": "Volume of distribution in Sprague-Dawley rat plasma at 10 mg/kg, iv measured up to 48 hrs by LC-MS/MS analysis", "assay_type": "ADME, organism-based"}, "[4]": {"target": "T1, Glutaminase kidney isoform, mitochondrial (Homo sapiens) (UniProt O94925)", "T1 sequence (whole entry)": "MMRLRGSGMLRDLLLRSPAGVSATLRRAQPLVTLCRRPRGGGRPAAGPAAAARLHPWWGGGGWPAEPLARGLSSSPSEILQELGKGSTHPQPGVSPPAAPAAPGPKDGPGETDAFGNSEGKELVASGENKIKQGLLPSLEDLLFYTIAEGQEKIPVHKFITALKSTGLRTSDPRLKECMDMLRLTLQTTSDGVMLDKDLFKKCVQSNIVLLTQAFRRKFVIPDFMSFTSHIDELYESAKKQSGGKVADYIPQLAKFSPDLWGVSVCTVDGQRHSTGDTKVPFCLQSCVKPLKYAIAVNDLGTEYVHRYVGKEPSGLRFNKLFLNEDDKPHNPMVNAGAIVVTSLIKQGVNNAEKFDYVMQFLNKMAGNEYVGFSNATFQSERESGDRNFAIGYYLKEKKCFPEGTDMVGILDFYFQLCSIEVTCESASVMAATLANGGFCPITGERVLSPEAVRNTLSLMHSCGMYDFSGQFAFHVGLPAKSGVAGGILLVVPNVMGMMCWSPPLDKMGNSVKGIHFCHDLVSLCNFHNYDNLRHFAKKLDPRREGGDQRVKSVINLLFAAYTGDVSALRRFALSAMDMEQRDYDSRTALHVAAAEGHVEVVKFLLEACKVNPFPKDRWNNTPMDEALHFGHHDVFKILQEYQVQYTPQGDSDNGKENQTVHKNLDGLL", "assay": "Inhibition of GAC (unknown origin)"}, "[5]": {"assay": "MRT(0 to infinity) in Sprague-Dawley rat plasma at 10 mg/kg, iv measured up to 48 hrs by LC-MS/MS analysis", "assay_type": "ADME, organism-based"}, "[6]": {"system": "A549", "assay": "Antitumor activity against human A549 cells xenografted in Balb/c nude mouse assessed as tumor growth inhibition at 150 mg/kg, po administered once daily 24 days relative to control", "assay_type": "functional, organism-based", "details": "time 24.0 day"}, "[7]": {"assay": "Oral bioavailability in Sprague-Dawley rat plasma at 100 mg/kg measured up to 48 hrs by LC-MS/MS analysis", "assay_type": "ADME, organism-based"}, "[8]": {"species": "Homo sapiens", "assay": "(§1) Inhibition of human recombinant GAC K320A mutant (73 to 598 residues ) expressed in Escherichia coli BL21 (DE3) cells incubated for 10 mins by fluorometric assay"}, "[9]": {"assay": "as §1"}, "[10]": {"assay": "AUC(0 to t) in Sprague-Dawley rat plasma at 100 mg/kg, po measured up to 48 hrs by LC-MS/MS analysis", "assay_type": "ADME, organism-based", "set-up": "dose 100 mg/kg, time < 48 hrs, route po"}, "[11]": {"system": "A549", "assay": "Antitumor activity against human A549 cells xenografted in Balb/c nude mouse assessed as tumor growth inhibition at 100 mg/kg, po administered once daily 24 days relative to control", "assay_type": "functional", "details": "A549, 576 h, time 24 day, read-out: TGI"}}, "note": "pEC50: −log10 of the molar value. Active and inactive are the calls of the source. The rule behind the calls is not given here."}
{"smiles": "O=C(Cc1cccc(Oc2ccccc2)c1)Nc1nnc(N[C@@H]2CCN(c3cccnn3)C2)s1", "values": [{"measurement": "MRT last at 48 h", "setting": "[1]", "value": 3.73, "unit": "h"}, {"measurement": "Activity", "setting": "[2]", "value": "Non-Toxic"}, {"measurement": "Vd", "setting": "[3]", "value": 15.7, "unit": "L/kg"}, {"measurement": "INH", "setting": "[4]", "value": 8.9, "unit": "nM"}, {"measurement": "MRT inf", "setting": "[5]", "value": 1.59, "unit": "h"}, {"measurement": "TGI", "setting": "[6]", "value": "Active"}, {"measurement": "bioavailability", "setting": "[7]", "value": 5, "unit": "%"}, {"measurement": "INH", "setting": "[8]", "value": 107, "unit": "nM"}, {"measurement": "pEC50", "setting": "[9]", "value": 7.99}, {"measurement": "AUC(0-t) at 48 h", "setting": "[10]", "value": 2310, "unit": "ng·h/mL"}, {"measurement": "inhibition in vivo at 100 mg/kg", "setting": "[11]", "value": 51.4, "unit": "%"}]}
